Results reported in patent publication US10946071B2 (MediciNova, Inc., priority 2018, dated 2021).

How the values were obtained:
[1] = tested on: subjects with primary or secondary progressive multiple sclerosis; assay: Phase 2 randomized, double-blind, placebo-controlled 96 week study: progression of disability (EDSS), Cox proportional-hazards regression; type: in vivo, human; conditions: for Risk of Confirmed Disability Progression: Cox Hazard Ratio (ibudilast vs. placebo): ibudilast 100 mg/d, 90% CI
Protocol: A total of 255 male and female subjects from 21 to 65 years old, inclusive, were enrolled into one of two treatment arms (ibudilast 100 mg/d or matching-placebo). […] During the study, subjects were allowed to change medications from one injectable to the other. […] Inhaled and topical steroids are allowed. If a relapse episode occured, a single course of systemic corticosteroids was permitted, as prescribed by the treating neurologist. Subjects returned to the clinic for follow-up visits on a regular basis at Week 4, 8, 12, 24, 36, 48, 60, 72, 84 and 96.
The double-blind Treatment Phase consisted of a Baseline visit followed by 10 scheduled clinic visits. The Baseline Visit had to have occured within 45 days following the Screening Visit. At the Baseline Visit (Day 1), subjects who completed all of the screening assessments and continued to meet eligibility criteria were randomized to one of two treatment groups (ibudilast 100 mg/d or placebo) in a 1:1 ratio.
Subjects took their first dose of study medication (30 mg ibudilast or placebo) on the evening of the Baseline Visit (Day 1). On the morning of Day 2, all subjects begun a 3 capsule BID dosing regimen through Day 14. Subjects randomized to ibudilast started at 60 mg/d (30 mg BID) on Day 2 and remained on 60 mg/d through Day 14. Beginning on Day 15, all subjects increased dosing to 5 capsules BID regimen; those randomized to the ibudilast treatment arm were taking 100 mg/d.
After Day 15, subjects with intolerable side-effects (e.g., nausea, diarrhea, vertigo) were allowed to reduced their dose to either 4 capsules twice a day (80 mg/d for those taking ibudilast) or 3 capsules twice a day (60 mg/d for those taking ibudilast). Subjects with intolerable side-effects (e.g., nausea, diarrhea, vertigo) at the end of Day 14 were allowed to continue taking 3 capsules twice a day at the Investigator's discretion. At the Investigator's discretion, the daily dose of ibudilast were potentially adjusted between 3 capsules twice a day, 4 capsules twice a day, and 5 capsules twice a day over the first 8 weeks of treatment. At the Investigator's discretion, the daily dose of ibudilast could have been divided and taken three times per day if needed to improve tolerability. […] The dosing interval was either twice a day or 3 times per day, at the Investigator's discretion. The dosing interval could also be changed to between twice and three times per day over the course of the entire study, at the Investigator's discretion.
Progression of disability was measured according to the score on the Expanded Disability Status Scale (EDSS; range, 0 to 10 in 0.5-point increments, with higher scores indicating more disability) with the use of Cox proportional-hazards regression. Confirmed disability progression was defined as an increase in the EDSS score of at least 1.0 point from baseline (or an increase of ≥0.5 points for patients with a baseline EDSS score of >5.0) that was sustained for at least 20 weeks.

[2] = Sanftner et al., Xenobiotica 2009; cited from earlier work

Structure (SMILES): CC(C)C(=O)c1c(C(C)C)nn2ccccc12 [ibudilast, 3-isobutyryl-2-isopropylpyrazolo[1,5-a]pyridine]
- hazard ratio for 20-week confirmed disability progression (as measured by the EDSS score) with ibudilast as compared with placebo ([1]; all subjects, ibudilast 100 mg/d oral vs placebo, 96 weeks, 95% CI): 0.74
- probability of no progression at week 72 ([1]; subgroup receiving interferon-beta, ibudilast arm (placebo arm 0.804)): 0.952
- proportion of subjects with disability progression at week 96 (not confirmed progression): ibudilast vs. placebo risk difference ([1]; subgroup receiving interferon-beta, week 96, 90% CI: −0.499 to −0.068): −0.283
- time to confirmed disability progression, ibudilast compared with placebo (in words) ([1]; subgroup taking GA as concomitant medication): the placebo arm was superior to ibudilast
- Risk of Confirmed Disability Progression: Cox Hazard Ratio (ibudilast vs. placebo) ([1]; subgroup: concomitant medication taking GA (glatiramer acetate)): 1.229
- Risk of Confirmed Disability Progression: Cox Hazard Ratio (ibudilast vs. placebo) ([1]; subgroup: concomitant medication taking Interferon-Beta): 0.238
- Risk of Confirmed Disability Progression: Cox Hazard Ratio (ibudilast vs. placebo) ([1]; subgroup: no concomitant glatiramer acetate or interferon-beta): 0.672
- time to confirmed disability progression, ibudilast compared with placebo (in words) ([1]; the other two subgroups (concomitant interferon-beta; no concomitant medication)): ibudilast was better than placebo
- CNS penetration [2]: good CNS penetration
